US12440500B2, “Phytoecdysones and the derivatives thereof for use in the treatment of neuromuscular diseases” (BIOPHYTIS, priority 2019, dated 2025)

How the values were obtained:
Format in all cases: in vivo, mouse
[1] = tested on: neuromuscular junctions of muscles soleus, plantaris and tibialis of SMA mice; experiment: Morphological study of neuromuscular junction maturation (immunofluorescence)
SMA mice [2] = experiment: Grip test (muscular fatigability)
Protocol: Phenotypic analyses of type 2 severe SMA mice treated or not starting from P0 with BIO101 were conducted. Longitudinally every two days, a test was conducted of the motor capacities of the mice from P5 to P9. The inventors evaluated the spontaneous displacement capacities by the open-field test, as well as the muscular fatigability by grip test, such as described hereinabove (Biondi et al., 2008; Branchu et al., 2013; Chali et al., 2016).
Indeed, the number of squares that they are able to cross is 10 at P5, 6 at P7 and 8 at P9 versus 17 at P5, 12 at P7 and 24 at P9 in the group of healthy control mice (with p<0.01, p<0.0001 and p<0.001 respectively). […] At P9, this difference is not significant but the treatment with BIO101 tends to have a beneficial effect with mice that are able to cross 11 squares in the group of SMA mice BIO101 in relation to 8 squares in the SMA Vehicle group, p=ns). In order to evaluate muscular fatigability, the gripping force of the hind feet of the mice was tested from P5 to P9 (grip test). The mice are suspended via their hind feet from a thin metal rod suspended in the air, horizontally. The time spent hanging on is recorded. Each mouse was subjected to five successive attempts with a rest period of one minute between two tests. Only the best test was retained for the evaluation of the muscular functions.

SMA mice [3] = experiment: Open-field test (spontaneous displacement capacities)
Protocol: Phenotypic analyses of type 2 severe SMA mice treated or not starting from P0 with BIO101 were conducted. Longitudinally every two days, a test was conducted of the motor capacities of the mice from P5 to P9. The inventors evaluated the spontaneous displacement capacities by the open-field test, as well as the muscular fatigability by grip test, such as described hereinabove (Biondi et al., 2008; Branchu et al., 2013; Chali et al., 2016). The device used for the open-field test is different according to the age of the mice. For animals from P0 to P6, it is formed of a 15×15×5 cm plastic box with a grid pattern of the field divided into 25 3 cm×3 cm squares. For animals from P7 to P21, it is formed of a 28×28×5 cm plastic box with a grid pattern of the field divided into 16 7 cm×7 cm squares. The mice were tested individually and the evaluation device was washed after each session. Each mouse initially placed at the center of the field was able to move about freely for 5 minutes. The behavioral measurements are recorded by the experimenter during these 5 minutes and the total number of squares crossed was recorded.

[4] = tested on: SMA mice (FVB/NRj-SmnΔ7/Δ7 huSMN2+/+ 2 copies); experiment: Phenotypic analysis: weight and survival of severe SMA mice under daily gavage
Source text: A severe SMA mouse model was used on an FVB/NRj gene pool, characterized by the invalidation of the exon 7 of the murine gene Smn and expressing 2 copies of the human transgene SMN2 (Smn^Δ7/Δ7; huSMN2^+/+) (Hsieh et al., 2000). The mice resulting from these crossings having the “FVB/NRj-Smn^Δ7/Δ7 huSMN2^+/+ 2 copies” genotype are described as “SMA”. These mice are characterized by progressive growth failure which is observed starting from 4 days post-natal and have a degeneration of about 50% of the motor neurons of the ventral horn of the spinal cord at the end of life, progressive muscular atrophy and an average lifespan of about 12 days (Hsieh et al., 2000). The mice having the “FVB/NRj-Smn^+/Δ7 huSMN2^++ 2 copies” genotype have no particular phenotype and are used as so-called “control” mice. The mice were treated via daily gavage of a dose of 50 mg/kg, either with the molecule BIO101 complexed to a vehicle (cyclodextrin in the present case), or with the vehicle alone (VH). The weight and the survival were analyzed on a daily basis until P11. In the rest of the description, n corresponds to the size of the sample and p corresponds to the “p value” used to quantify the statistical significance of a result.
The same type II murine model was used to characterize the phenotypic effects of the molecule BIO103 in a severe SMA model. The mice were treated via daily gavage of a dose of 50 mg/kg, either with the molecule BIO103 complexed with the vehicle (cyclodextrin in the present case), or with the vehicle alone (VH). The weight and the survival were analyzed on a daily basis until P11.

## CC(C)(O)CC[C@@H](O)[C@](C)(O)[C@H]1CC[C@@]2(O)C3=CC(=O)[C@@H]4C[C@@H](O)[C@@H](O)C[C@]4(C)[C@H]3CC[C@]12C [BIO101, 20-hydroxyecdysone]
[1]; Soleus, treated daily from birth to P10, p<0.05 versus vehicle
  percentage of neuromuscular junctions of the perforated type: 26.5%
[1]; Tibialis, treated daily from birth to P10, p<0.05 versus vehicle
  percentage of neuromuscular junctions of the perforated type: 45.7%
[1]; all the muscles tested, treated daily from birth to P10
  percentage of immature plates: decrease
[1]; muscle plantaris, treated daily from birth to P10, p=ns versus vehicle
  percentage of neuromuscular junctions of the perforated type: 16.3%
SMA mice [2]; P5, SMA mice (vehicle 0.2), p<0.05
  hanging time (grip test): 2.3 s
SMA mice [2]; P7, SMA mice (vehicle 6.2), p=ns
  hanging time (grip test): 12.2 s
SMA mice [2]; P9, SMA mice (vehicle 5.6), p<0.01
  hanging time (grip test): 20.9 s
SMA mice [3]; P5, SMA mice (vehicle 10)
  number of squares crossed (open-field test): 11 squares
SMA mice [3]; P7, SMA mice (vehicle 6), p<0.05
  number of squares crossed (open-field test): 10 squares
SMA mice [3]; P9, SMA mice (vehicle 8), p=ns
  number of squares crossed (open-field test): 11 squares
[4]; 50 mg/kg daily gavage P0 to P11, versus vehicle, p<0.05
  pre-P11 mortality: significantly reduces
[4]; 50 mg/kg daily gavage from birth to P11, versus vehicle
  loss of weight of the animals: significantly limit
